The target in one assay is α-glucosidase (Saccharomyces cerevisiae, UniProt P53341). The assay can be described thus: α-Glucosidase inhibition assay. Format: biochemical. As to the method: α-Glucosidase (0.5 unit/mL) was mixed with phosphate buffer (0.1 M, pH 6.9) to make enzyme stock solution. Likewise, a substrate solution (p-nitrophenyl-α-D-glucopyranoside) was also prepared in phosphate buffer. Each of the sample dilutions was mixed with 1 mL of the enzyme solution separately and incubated at 37 °C for 15 min. Sodium carbonate solution (80 µL of 0.2 M) was added to the reaction mixture to stop the reaction, and the absorbance was measured at 405 nm. The % enzyme inhibition was calculated as (5) % inhibition=Control absorbance−Test absorbance /Control absorbance × 100

The subject of the next assay is α-amylase. The assay can be described thus: α-Amylase inhibition assay (DNS method). Format: biochemical. The note with it: for Percent Inhibition of α-Amylase (Mean ± S.E.M): n = 3. Here is the method: The degree of inhibition was assessed by quantifying maltose equivalents using a slightly modified dinitrosalicylic acid (DNS) method. From each of the sample dilutions, 1 mL was pre-incubated with 1 U/mL α-amylase for half an hour. After incubation, 1 mL of 1% of starch solution was added to the mixture and further incubated for 10 min. To stop the reaction, 1 mL DNS reagent was added to the reaction mixture and heated in a boiling water bath for 5 min. […] The absorbance was measured at 540 nm.

The nature of assay [1]: DPPH free radical scavenging assay. Conditions: for DPPH Percent Inhibition (Mean ± S.E.M): n = 3. As to the method: (§1) The free radical scavenging capacity of the isolated compounds was determined using DPPH and ABTS assays. To prepare the DPPH stock solution, 30 mg of DPPH was dissolved in 100 mL of methanol. Likewise, to prepare ABTS stock solution, 383 mg of 7 mM ABTS and 66.2 mg of 2.45 mM K2S2O8 were taken, each of them was individually dissolved in 100 mL of methanol and mixed together thoroughly. For the free radical development, the solutions were kept in dark for one day. Different dilutions (62.5, 125, 250, 500, 1000 μg/mL) from each of the sample stock solutions (5 mg/5 mL of methanol) were prepared. Each of the dilutions (0.8 mL) was mixed with 0.8 mL of DPPH stock solution and incubated for 15 min and their absorbance was recorded at 515 nm. Likewise, 0.8 mL of each of the same dilutions was mixed with 2 mL of ABTS solution, incubated for 25 min and their absorbance was recorded at 745 nm. The percent scavenging potentials of compounds were calculated using the following equation:(1) Percent scavenging= A−B/A × 100, where A is the absorbance of oxidized stock (DPPH/ABTS) used as control, and B is the absorbance of the sample.
(In general: DPPH is a stable violet radical that fades when it is reduced.)

Assay [2] is described as follows: ABTS free radical scavenging assay. Conditions: for ABTS Percent Inhibition (Mean ± S.E.M): n = 3. As to the method: as §1
For assay [3], the target named is T1, acetylcholinesterase (AChE) (Homo sapiens, UniProt P22303). The assay is described as follows: biochemical. Here is the method: (§2) AChE and BChE were used as representative enzymes to determine the anticholinesterase effect of isolated compounds using Ellman’s assay with slight modifications. Sample stocks (5 mg/5 mL in methanol) were prepared and a range of serial dilutions (125, 250, 500, 1000 μg/mL) was made from each of them. Phosphate buffer (6.8 pH) was used for making the enzyme and substrate solutions.

For assay [4], the target named is T2, butyrylcholinesterase (BChE) (Homo sapiens, UniProt P06276). The assay can be described thus: Butyrylcholinesterase inhibition, Ellman's assay. Format: biochemical. As to the method: as §2
The target of assay [5] is T1, acetylcholinesterase (AChE). The assay is described as follows: biochemical. The note with it: 62.5 μg/mL, n = 3; read-out: Percent AChE (Mean ± SEM), %inhibition.
The target of assay [6] is T2, butyrylcholinesterase (BChE). The assay is described as follows: Butyrylcholinesterase inhibition, Ellman's assay. Format: biochemical. The note with it: 62.5 μg/mL, n = 3; read-out: Percent BChE (Mean ± SEM), %inhibition. On the technique in general: Ellman's reagent forms a yellow product with free thiols.

“And” between values parts separate entries of the source, which are not always exact repeats. Equal values may be shown once.

T2 sequence (P06276 29-602, species assumed): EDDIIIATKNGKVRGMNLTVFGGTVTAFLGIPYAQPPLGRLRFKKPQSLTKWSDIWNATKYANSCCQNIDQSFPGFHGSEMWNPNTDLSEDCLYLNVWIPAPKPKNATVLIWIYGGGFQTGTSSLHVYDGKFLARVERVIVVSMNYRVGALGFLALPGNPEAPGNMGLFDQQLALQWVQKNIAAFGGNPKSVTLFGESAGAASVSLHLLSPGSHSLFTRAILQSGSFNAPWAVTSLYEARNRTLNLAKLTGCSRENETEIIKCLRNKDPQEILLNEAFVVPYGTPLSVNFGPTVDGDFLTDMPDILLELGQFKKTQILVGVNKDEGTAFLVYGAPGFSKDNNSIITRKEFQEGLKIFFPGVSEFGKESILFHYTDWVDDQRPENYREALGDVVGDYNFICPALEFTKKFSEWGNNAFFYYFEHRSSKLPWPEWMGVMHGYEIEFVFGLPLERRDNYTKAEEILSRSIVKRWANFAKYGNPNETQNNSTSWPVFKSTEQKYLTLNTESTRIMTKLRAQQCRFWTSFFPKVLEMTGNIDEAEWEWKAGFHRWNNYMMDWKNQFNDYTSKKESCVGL
T1 sequence (P22303 32-614, species assumed): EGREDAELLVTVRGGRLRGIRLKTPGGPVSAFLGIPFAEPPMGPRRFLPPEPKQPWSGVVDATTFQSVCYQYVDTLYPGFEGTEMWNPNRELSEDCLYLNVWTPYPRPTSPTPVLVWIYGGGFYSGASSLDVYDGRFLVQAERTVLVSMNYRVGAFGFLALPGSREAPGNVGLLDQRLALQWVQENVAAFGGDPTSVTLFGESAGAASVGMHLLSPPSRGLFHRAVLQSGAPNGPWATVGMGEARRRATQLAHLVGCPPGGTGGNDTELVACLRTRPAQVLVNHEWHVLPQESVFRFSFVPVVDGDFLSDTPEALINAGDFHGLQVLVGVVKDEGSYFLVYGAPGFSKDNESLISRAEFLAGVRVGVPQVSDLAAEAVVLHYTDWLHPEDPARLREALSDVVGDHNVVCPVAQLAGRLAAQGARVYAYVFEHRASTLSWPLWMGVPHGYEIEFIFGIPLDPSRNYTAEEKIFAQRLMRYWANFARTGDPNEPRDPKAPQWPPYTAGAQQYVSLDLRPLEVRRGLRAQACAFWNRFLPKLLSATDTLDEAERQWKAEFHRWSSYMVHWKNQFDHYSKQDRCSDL
Sequence of α-glucosidase (P53341 whole entry): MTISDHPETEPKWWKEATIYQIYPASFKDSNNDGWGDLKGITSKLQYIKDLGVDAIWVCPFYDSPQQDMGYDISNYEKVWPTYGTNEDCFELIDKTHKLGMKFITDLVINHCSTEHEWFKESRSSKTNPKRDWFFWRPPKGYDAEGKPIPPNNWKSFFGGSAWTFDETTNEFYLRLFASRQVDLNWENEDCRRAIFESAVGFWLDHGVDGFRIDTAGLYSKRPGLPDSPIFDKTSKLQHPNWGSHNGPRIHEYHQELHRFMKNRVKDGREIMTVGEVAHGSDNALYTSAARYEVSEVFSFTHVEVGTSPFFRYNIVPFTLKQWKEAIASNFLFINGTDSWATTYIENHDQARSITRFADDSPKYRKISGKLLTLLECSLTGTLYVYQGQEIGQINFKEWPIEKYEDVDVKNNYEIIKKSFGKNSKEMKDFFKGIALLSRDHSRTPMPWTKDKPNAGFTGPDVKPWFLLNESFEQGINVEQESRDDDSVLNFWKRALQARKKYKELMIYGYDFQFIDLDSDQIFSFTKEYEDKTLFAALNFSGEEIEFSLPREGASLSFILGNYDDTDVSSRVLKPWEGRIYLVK

Regarding `C[C@H]1O[C@H](O[C@H]2[C@H](O)[C@@H](O)[C@@H](O[C@H]3[C@H](O)[C@@H](O)C(O)O[C@@H]3CO)O[C@@H]2CO)[C@H](O)[C@@H](O)[C@@H]1N[C@H]1C=C(CO)[C@@H](O)[C@H](O)[C@H]1O` (stereo partly drawn) [Acarbose, reference compound], on α-glucosidase, the “Percent Inhibition of α-Glucosidase (Mean ± S.E.M)” value is 93.72 ± 1.03% and 67.16 ± 1.58% and 58.73 ± 1.09% and 48.76 ± 2.20%. Moreover, the “Percent Inhibition of α-Amylase (Mean ± S.E.M)” value is 48.13 ± 2.09% with α-amylase (62.5 μg/mL); 57.03 ± 1.19% in the assay on α-amylase (125 μg/mL); 66.37 ± 1.18% in the assay with α-amylase (250 μg/mL); 77.11 ± 1.41% in the assay on α-amylase (500 μg/mL); 92.12 ± 0.83% with α-amylase (1000 μg/mL).
The term inhibition denotes the share of the control response that was lost under treatment. A word on the IC50: it is the point on the concentration scale where inhibition reaches its midpoint. Regarding `CC(C)C(C(=O)O)c1ccc(C(C(=O)O)C(C)C)cc1` (stereo not drawn) [Compound XII], the “DPPH IC50” value in assay [1] was determined as 60 µg/mL. Further, the “DPPH Percent Inhibition (Mean ± S.E.M)” value in assay [1] (62.5 μg/mL) came out at 51.02 ± 1.30%; in assay [1] (125 μg/mL) it was 61.75 ± 1.78%; in assay [1] (250 μg/mL) it was 71.13 ± 1.31%; in assay [1] (500 μg/mL), 78.17 ± 1.04%; in assay [1] (1000 μg/mL), 86.54 ±2.16%. Besides, in assay [2], the “ABTS IC50” value stood at 62 µg/mL. In addition, the “ABTS Percent Inhibition (Mean ± S.E.M)” value in assay [2] (62.5 μg/mL) was 50.51 ± 1.19%; in assay [2] (125 μg/mL) it was 60.20 ± 3.05%; in assay [2] (250 μg/mL) it was 71.44 ± 2.11%; in assay [2] (500 μg/mL), 77.15 ± 1.06%; in assay [2] (1000 μg/mL) it was 86.07 ± 1.43%. Also, the inhibition at 125 µg/mL in assay [3] (125 μg/mL, n = 3, read-out: Percent AChE (Mean ± SEM), %inhibition) came out at 61.2 ± 1.71%; in assay [4] (125 μg/mL, n = 3, read-out: Percent BChE (Mean ± SEM), %inhibition) it was 64.4 ± 1.85%. For the same compound, the inhibition at 250 µg/mL in assay [3] (250 μg/mL, n = 3, read-out: Percent AChE (Mean ± SEM), %inhibition) was 69.3 ± 1.38%; in assay [4] (250 μg/mL, n = 3, read-out: Percent BChE (Mean ± SEM), %inhibition), 77.1 ± 2.26%. Moreover, the inhibition at 500 µg/mL in assay [3] (500 μg/mL, n = 3, read-out: Percent AChE (Mean ± SEM), %inhibition) was determined as 76.2 ± 1.01%; in assay [4] (500 μg/mL, n = 3, read-out: Percent BChE (Mean ± SEM), %inhibition), 85.1 ± 2.06%. The inhibition at 1000 µg/mL is 84.4 ± 1.36% in assay [3] (1000 μg/mL, n = 3, read-out: Percent AChE (Mean ± SEM), %inhibition) and 93.89 ± 0.81% in assay [4] (1000 μg/mL, n = 3, read-out: Percent BChE (Mean ± SEM), %inhibition). Besides, the IC50 in assay [3] (read-out: AChE IC50 (converted)) was 198 µM; in assay [4], 216 µM. In addition, the “α-Amylase IC50” value on α-amylase came out at 92 µg/mL. The “Percent Inhibition of α-Amylase (Mean ± S.E.M)” value is 47.51 ± 1.19 % in the assay on α-amylase (62.5 μg/mL); 56.10 ± 2.05 % in the assay with α-amylase (125 μg/mL); 66.94 ± 1.11 % with α-amylase (250 μg/mL); 74.25 ± 1.06 % in the assay on α-amylase (500 μg/mL); 79.07 ± 1.43 % in the assay on α-amylase (1000 μg/mL). Also, the inhibition at 62.5 µg/mL in assay [5] turned out to be 52.5 ± 1.47%; in assay [6] it was 50.4 ± 1.11%.

Values taken from article PMC8036409 (Molecules, 2021).
